Literature values as cited in patent US20190290629A1, “NIRAPARIB SUSTAINED AND CONTROLLED RELEASE PHARMACEUTICAL COMPOSITION AND USE THEREOF” (priority 2016, published 2019).
Read-outs that look alike come from different tables or passages of the source.

Assays:
[1] = tested on: ovarian cancer; conditions: orally once daily
[2] = not given; remark: listed apart in the source
[3] = immediate release capsule, clinical studies

For NC(=O)c1cccc2cn(-c3ccc([C@@H]4CCCNC4)cc3)nc12 [niraparib, (S)-2-(4-(piperidin-3-yl)phenyl)-2H-indazole-7-carboxamide], the dose-limiting toxicity (clinical) is listed as “thrombocytopenia and anemia”, the “patients who discontinued the treatment due to toxic and side effects” value (clinical studies) is listed as 15% and the “patients who reduced dose or stopped taking the drug due to toxic and side effects” value (clinical studies) is listed as 69%. For the same compound, the “patients with 3-4 grade anemia” value (clinical studies) was 25%, the “patients with grade 3-4 platelet reduction” value (clinical studies) was 29% and the patients with neutropenia (clinical studies) was 30%. The “median progression free survival time” value ([1]; patients with ovarian cancer of BRCA gene mutation, after first chemotherapy) was 21 months, the “median progression free survival time” value ([1]; patients without BRCA gene mutations) was 9.3 months and the “steady-state blood concentration peak value” ([2]; 300 mg/time/day) was “about 4.4 μM”. For the same compound, the “steady-state blood concentration trough value” ([2]; 300 mg/time/day) was roughly 2.0 µM, the “time at which steady-state blood concentration is reached” value ([2]; 300 mg/time/day) was 12 to 14 days and the oral bioavailability ([2]; immediate release capsule of niraparib tosylate monohydrate, clinical studies) was 73%. For the same compound, the “blood concentration peak time” value [2, 3] was 3 h, the “effect of food on plasma exposure” value [2, 3] was “not affected by food” and the plasma half-life [2, 3] was “more than 30 hours”.
